# “Also recorded” adds a separate entry of the source.
# Experiments:
# [1] = tested on: subjects with hypertension; experiment: Double-blinded, randomized, placebo-controlled trial in subjects with hypertension (Example 2; AOBP week 4, serum K+); format: in vivo, human
# Method: A double-blinded, randomized, placebo-controlled trial on the safety and efficacy of Compound A HBr was conducted on subjects with hypertension.
# Hypertensive subjects were randomly assigned to one of the following six experimental groups: • (a) Placebo group: Oral administration of a placebo tablet matched for size, color, and shape of study drug once in the morning each day; • (b) 12.5 mg BID: Oral administration of one tablet containing 12.5 mg of Compound A HBr once in the morning and evening, 12 hours apart each day; • (c) 25 mg BID: Oral administration of one tablet containing 25 mg of Compound A HBr once in the morning and evening, 12 hours apart each day; • (d) 12.5 mg QD: Oral administration of one tablet containing 12.5 mg of Compound A HBr once in the morning each day; • (e) 50 mg QD: Oral administration of two tablets containing 25 mg of Compound A HBr once in the morning each day; and • (f) 100 mg QD: Oral administration of one tablet containing 100 mg of Compound A HBr once in the morning each day.
# Subjects in the study met the following inclusion criteria: • (a) Male and nonpregnant, nonlactating female subjects ≥18 years of age; • (b) Written informed consent Health Insurance Portability and Accountability Act authorization, and local patient privacy required documentation for this study have been obtained; • (c) Automated office blood pressure (AOBP) with SBP ≥130 mm Hg; • (d) Background antihypertensive treatment of ≥2 drugs; • (e) PRA ≤1.0 ng/mL; • (f) Serum aldosterone ≥1 ng/dL; and • (g) Morning serum cortisol in normal range. If baseline serum cortisol <18 mcg/dL, then baseline Cortrosyn stimulation test administered at baseline.
# Prospective subjects were also excluded based on the following exclusion criteria: • (a) Concomitant use of epithelial sodium channel inhibitors or mineralocorticoid receptor antagonists; • (b) Subjects with hypokalemia; • (c) Subjects with hyperkalemia; • (d) Subjects with serum cortisol <3 mcg/dL; • (e) Subjects with serum sodium <135 mEq/L; • (f) Subjects with estimated glomerular filtration rate <60 mL/min/1.73 m2; • (g) Subjects with type 1 or uncontrolled (hemoglobin A1c ≥9%) type 2 diabetes mellitus; • (h) Subjects with body mass index >40 kg/m2; • (i) Subjects with unstable angina; • (j) Subjects with SBP ≥175 mm Hg or DBP ≥100 mm Hg; • (k) Subjects with a decrease in SBP ≥20 mm Hg or DBP ≥10 mm Hg from sitting to standing position; • (l) Subjects who, in the opinion of the investigator, have suspected nonadherence to antihypertensive treatment; • (m) Subjects who, in the opinion of the investigator, have any major medical illness or symptoms; • (n) Subjects who, in the opinion of the investigator, have any acute or chronic medical or psychiatric condition; • (o) Subjects undergoing treatment with any of the following medications: • (i) Topical corticoids; • (ii) Sympathomimetic decongestants; • (iii) Theophylline; • (iv) Phosphodiesterase type 5 inhibitors; • (v) NSAIDs; • (vi) Intramuscular steroids; • (vii) Estrogen; • (viii) Cytochromes; • (ix) Strong CYP3A and CYP3A4 inducers; • (p) Subjects with known hypersensitivity to Compound A HBr or any of the excipients; and • (q) Subjects who are night-shift workers.
# cynomolgus monkeys = experiment: 13-week repeat-dose oral toxicology study in monkeys; format: in vivo, cynomolgus monkey
# Method: (§1) The toxicologic profile of Compound A was assessed in several toxicology studies, including 13-week repeat-dose oral studies in Sprague Dawley rats and cynomolgus monkeys, a standard battery of genotoxicity studies, preliminary embryo-fetal development studies in rats and rabbits, and in vitro and in vivo phototoxicity studies. Rats and monkeys were selected for the general toxicology studies on the basis of pharmacology and metabolism data that indicated these animals would have metabolism similar to that of humans. Studies were performed in accordance with GLP regulations.
# (§2) Doses in the 13-week toxicology studies were 0, 50, 150, 450 (female), and 600 (male) mg/kg/d in Sprague Dawley rats. In cynomolgus monkeys (females and males), the doses were 0, 10, 30, and 100 mg/kg/d. Hematoxylin-and-eosin-stained sections (nominal thickness of approximately 5 μm) were prepared from the formalin-fixed paraffin-embedded organs/tissues of all animals in the toxicology studies.
# [2] = as above; format: in vivo, cynomolgus monkey; details: cynomolgus monkey, in vivo, oral
# Method: as §1, §2
# [3] = tested on: 46 targets in receptor binding and enzyme inhibition studies; experiment: Pan-receptor screening
# Excerpt: Compound A, at a concentration of 10 μmol/L, was screened against 46 targets in receptor binding and enzyme inhibition studies to determine if Compound A interacted with any off-target enzymes or receptors.
# [4] = tested on: plasma cortisol concentrations (PCCs); experiment: ACTH-treated cynomolgus monkey model; format: in vivo
# Method: An adrenocorticotropic hormone (ACTH)-treated cynomolgus monkey model was performed to evaluate the effect of Compound A on plasma cortisol concentrations (PCCs). A dose of Compound A, as free base, that was 100-fold higher than required to reduce PACs (0.3 mg/kg by mouth) was administered, followed immediately by ACTH (50 μg/kg subcutaneously). PACs were also evaluated in the animals. PACs and PCCs were determined by radioimmunoassay and measured during the 24 hours after Compound A administration.
smiles,measurement,setting,value
CC(=O)N[C@H]1CC[C@H](NC(=O)CN2CCN(c3nncc(-c4ccc(C)cc4)n3)CC2)CC1 [Compound A HBr],"Reduction in systolic blood pressure from baseline at week 4, dose cohort vs placebo, Mean (SEM)",[1]; 12.5 mg BID,1.2 (5.2)
same,"Systolic BP by AOBP, Change (Wk 4 v. BL), Mean","[1]; 12.5 mg BID, N 10",−5.3 mmHg
same,"Systolic BP by AOBP, Change (Wk 4 v. BL), Median","[1]; 12.5 mg BID, N 10",−4.5 mmHg
same,"Systolic BP by AOBP, Week 4, Mean","[1]; 12.5 mg BID, N 10",138 mmHg
same,"Systolic BP by AOBP, Week 4, Median","[1]; 12.5 mg BID, N 10",133 mmHg
same,"Reduction in systolic blood pressure from baseline at week 4, dose cohort vs placebo, Mean (SEM)",[1]; 12.5 mg QD,3.85 (6.1)
same,"Systolic BP by AOBP, Change (Wk 4 v. BL), Mean","[1]; 12.5 mg QD, N 10",−7.9 mmHg
same,"Systolic BP by AOBP, Change (Wk 4 v. BL), Median","[1]; 12.5 mg QD, N 10",−2.25 mmHg
same,"Systolic BP by AOBP, Week 4, Mean","[1]; 12.5 mg QD, N 10",138.9 mmHg
same,"Systolic BP by AOBP, Week 4, Median","[1]; 12.5 mg QD, N 10",139 mmHg
same,"Reduction in systolic blood pressure from baseline at week 4, dose cohort vs placebo, Mean (SEM)",[1]; 25 mg BID,11.5 (5.1)
same,"Systolic BP by AOBP, Change (Wk 4 v. BL), Mean","[1]; 25 mg BID, N 11",−15.5 mmHg
same,"Systolic BP by AOBP, Change (Wk 4 v. BL), Median","[1]; 25 mg BID, N 11",−20.0 mmHg
same,"Systolic BP by AOBP, Week 4, Mean","[1]; 25 mg BID, N 11",132.1 mmHg
same,"Systolic BP by AOBP, Week 4, Median","[1]; 25 mg BID, N 11",132 mmHg
same,"Reduction in systolic blood pressure from baseline at week 4, dose cohort vs placebo, Mean (SEM)",[1]; 50 mg QD,6.3 (4.9)
same,"Systolic BP by AOBP, Change (Wk 4 v. BL), Mean","[1]; 50 mg QD, N 12",−10.3 mmHg
same,"Systolic BP by AOBP, Change (Wk 4 v. BL), Median","[1]; 50 mg QD, N 12",−8.75 mmHg
same,"Systolic BP by AOBP, Week 4, Mean","[1]; 50 mg QD, N 12",132.1 mmHg
same,"Systolic BP by AOBP, Week 4, Median","[1]; 50 mg QD, N 12",133 mmHg
same,"Reduction in systolic blood pressure from baseline at week 4, dose cohort vs placebo, Mean (SEM)",[1]; 100 mg QD,15 (5.4)
same,median increase in serum potassium (K+),[1]; 100 mg QD cohort,0.2 mmol/L
same,subjects with dose held or dose reduction related to elevated K+,[1]; 100 mg QD cohort,No subjects
same,"Systolic BP by AOBP, Change (Wk 4 v. BL), Mean","[1]; 100 mg QD, N 10",−19.0 mmHg
same,"Systolic BP by AOBP, Change (Wk 4 v. BL), Median","[1]; 100 mg QD, N 10",−20.25 mmHg
same,"Systolic BP by AOBP, Week 4, Mean","[1]; 100 mg QD, N 10",126.1 mmHg
same,"Systolic BP by AOBP, Week 4, Median","[1]; 100 mg QD, N 10",124 mmHg
CC(=O)N[C@H]1CC[C@H](NC(=O)CN2CCN(c3nncc(-c4ccc(C)cc4)n3)CC2)CC1 [Compound A],effects on electrocardiogram values,cynomolgus monkeys; doses up to 100 mg/kg/d,no Compound A-related effects
same,effect on cortisol,cynomolgus monkeys; monkeys,no effects on cortisol
same,adrenal findings,"cynomolgus monkeys; monkeys, all dose levels (10, 30, 100 mg/kg/d)",Hypertrophy of zona glomerulosa cells in the adrenal cortices and decreased PACs
same,NOAEL at 13 weeks,[2]; female monkeys,10 mg/kg/day
same,NOAEL at 13 weeks,[2]; male monkeys,30 mg/kg/day
same,inhibition of 46 primary molecular target receptors or enzymes,[3]; 10 μmol/L,did not substantially inhibit
same,IC50,"[3]; any of 46 targets, read-out: IC50 for off-target receptors or enzymes",> 10 µM
same,selectivity for CYP11B2 over CYP11B1 in vivo,"[4]; monkey models, dose ratio",100 fold
same,effect on PCCs,"[4]; single oral dose 100 times greater than the dose that inhibited PAC production, ACTH-loaded monkeys",did not affect PCCs; also recorded: PCCs were not affected
